The values that follow come from ChEMBL document CHEMBL2021885, “Triphenylbutanamines: kinesin spindle protein inhibitors with in vivo antitumor activity” (J Med Chem, 2012).

Series [1] in a line: Lipophilicity, Log P of the compound. It is filed as physicochemical. The following applies: octanol/water; read-out: logP.
In another series the test system is NCI-H1299. The series can be described thus: Antiproliferative activity against human NCI-H1299 cells after 72 hrs by Alamar blue assay. It is filed as functional. The following applies: NCI-H1299, 72 h.
In series [2] the target is T1, Kinesin-like protein KIF7 (Homo sapiens) (UniProt Q2M1P5).
T1 sequence (whole entry): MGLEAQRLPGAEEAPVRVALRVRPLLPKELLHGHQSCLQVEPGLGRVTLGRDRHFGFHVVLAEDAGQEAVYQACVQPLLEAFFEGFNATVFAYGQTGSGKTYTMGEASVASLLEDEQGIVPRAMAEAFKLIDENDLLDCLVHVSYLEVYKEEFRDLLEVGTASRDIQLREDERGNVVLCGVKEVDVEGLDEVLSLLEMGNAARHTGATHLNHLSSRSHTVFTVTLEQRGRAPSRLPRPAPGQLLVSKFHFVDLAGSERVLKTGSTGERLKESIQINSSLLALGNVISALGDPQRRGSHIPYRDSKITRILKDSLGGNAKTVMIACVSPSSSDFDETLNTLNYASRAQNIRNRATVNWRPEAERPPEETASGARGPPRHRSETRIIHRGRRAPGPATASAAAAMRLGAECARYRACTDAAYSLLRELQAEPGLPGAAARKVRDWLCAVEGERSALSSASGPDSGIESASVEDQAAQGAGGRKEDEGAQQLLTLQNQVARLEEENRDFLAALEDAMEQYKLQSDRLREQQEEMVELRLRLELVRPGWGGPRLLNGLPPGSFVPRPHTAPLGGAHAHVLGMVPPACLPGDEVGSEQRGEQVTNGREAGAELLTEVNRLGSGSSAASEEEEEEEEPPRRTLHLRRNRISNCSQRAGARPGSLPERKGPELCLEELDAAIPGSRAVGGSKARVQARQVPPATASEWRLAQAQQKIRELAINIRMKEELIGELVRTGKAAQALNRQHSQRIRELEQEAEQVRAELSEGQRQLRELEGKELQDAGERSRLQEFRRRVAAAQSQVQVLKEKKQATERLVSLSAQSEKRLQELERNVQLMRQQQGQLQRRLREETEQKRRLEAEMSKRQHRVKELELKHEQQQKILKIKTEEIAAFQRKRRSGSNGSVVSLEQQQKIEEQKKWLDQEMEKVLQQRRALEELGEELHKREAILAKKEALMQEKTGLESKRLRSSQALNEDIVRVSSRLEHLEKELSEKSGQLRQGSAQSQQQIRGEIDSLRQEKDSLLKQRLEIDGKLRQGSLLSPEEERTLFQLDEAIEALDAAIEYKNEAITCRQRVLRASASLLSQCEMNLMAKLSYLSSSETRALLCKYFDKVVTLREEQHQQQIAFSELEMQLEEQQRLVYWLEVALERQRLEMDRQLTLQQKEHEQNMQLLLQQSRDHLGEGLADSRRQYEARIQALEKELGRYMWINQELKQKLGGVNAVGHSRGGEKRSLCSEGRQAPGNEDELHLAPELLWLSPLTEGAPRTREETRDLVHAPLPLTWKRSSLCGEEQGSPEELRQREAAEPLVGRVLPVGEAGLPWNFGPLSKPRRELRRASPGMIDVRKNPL
The series can be described thus: Inhibition of Kif7 ATPase activity.

Series [3] has as its target Kinesin-like protein KIF20B (Homo sapiens) (UniProt Q96Q89). Put plainly: Inhibition of MT-stimulated MPP1 ATPase activity.
Series [4] deals with T1, Kinesin-like protein KIF7 (Homo sapiens). Put plainly: Inhibition of MT-stimulated Kif7 ATPase activity.
For series [5], the target named is Kinesin-like protein KIF20B (Homo sapiens) (UniProt Q96Q89). The series can be described thus: Inhibition of MPP1 ATPase activity.
A further series relates to BXPC-3. The series can be described thus: Antiproliferative activity against human BxPC3 cells after 72 hrs by Alamar blue assay. Format: functional. The settings on record: BXPC-3, 72 h.
The nature of series [6]: Turbidimetric solubility of the compound at pH 6. Format: physicochemical. The following applies: buffer.
Series [7] can be described thus: Distribution coefficient, log D of the compound at pH 7.4. It is filed as physicochemical. The settings on record: octanol/water, read-out: logD.
The nature of series [8]: Turbidimetric solubility of the compound at pH 7.4. It is filed as physicochemical. The following applies: buffer.
In series [9] the target is Centromere-associated protein E (Homo sapiens) (UniProt Q02224). The series can be described thus: Inhibition of CENP-E ATPase activity.

The source made the active and inactive calls. The rule behind the calls is not given here.

Kinesin-like protein KIF20B (Homo sapiens), sequence (Q96Q89 whole entry): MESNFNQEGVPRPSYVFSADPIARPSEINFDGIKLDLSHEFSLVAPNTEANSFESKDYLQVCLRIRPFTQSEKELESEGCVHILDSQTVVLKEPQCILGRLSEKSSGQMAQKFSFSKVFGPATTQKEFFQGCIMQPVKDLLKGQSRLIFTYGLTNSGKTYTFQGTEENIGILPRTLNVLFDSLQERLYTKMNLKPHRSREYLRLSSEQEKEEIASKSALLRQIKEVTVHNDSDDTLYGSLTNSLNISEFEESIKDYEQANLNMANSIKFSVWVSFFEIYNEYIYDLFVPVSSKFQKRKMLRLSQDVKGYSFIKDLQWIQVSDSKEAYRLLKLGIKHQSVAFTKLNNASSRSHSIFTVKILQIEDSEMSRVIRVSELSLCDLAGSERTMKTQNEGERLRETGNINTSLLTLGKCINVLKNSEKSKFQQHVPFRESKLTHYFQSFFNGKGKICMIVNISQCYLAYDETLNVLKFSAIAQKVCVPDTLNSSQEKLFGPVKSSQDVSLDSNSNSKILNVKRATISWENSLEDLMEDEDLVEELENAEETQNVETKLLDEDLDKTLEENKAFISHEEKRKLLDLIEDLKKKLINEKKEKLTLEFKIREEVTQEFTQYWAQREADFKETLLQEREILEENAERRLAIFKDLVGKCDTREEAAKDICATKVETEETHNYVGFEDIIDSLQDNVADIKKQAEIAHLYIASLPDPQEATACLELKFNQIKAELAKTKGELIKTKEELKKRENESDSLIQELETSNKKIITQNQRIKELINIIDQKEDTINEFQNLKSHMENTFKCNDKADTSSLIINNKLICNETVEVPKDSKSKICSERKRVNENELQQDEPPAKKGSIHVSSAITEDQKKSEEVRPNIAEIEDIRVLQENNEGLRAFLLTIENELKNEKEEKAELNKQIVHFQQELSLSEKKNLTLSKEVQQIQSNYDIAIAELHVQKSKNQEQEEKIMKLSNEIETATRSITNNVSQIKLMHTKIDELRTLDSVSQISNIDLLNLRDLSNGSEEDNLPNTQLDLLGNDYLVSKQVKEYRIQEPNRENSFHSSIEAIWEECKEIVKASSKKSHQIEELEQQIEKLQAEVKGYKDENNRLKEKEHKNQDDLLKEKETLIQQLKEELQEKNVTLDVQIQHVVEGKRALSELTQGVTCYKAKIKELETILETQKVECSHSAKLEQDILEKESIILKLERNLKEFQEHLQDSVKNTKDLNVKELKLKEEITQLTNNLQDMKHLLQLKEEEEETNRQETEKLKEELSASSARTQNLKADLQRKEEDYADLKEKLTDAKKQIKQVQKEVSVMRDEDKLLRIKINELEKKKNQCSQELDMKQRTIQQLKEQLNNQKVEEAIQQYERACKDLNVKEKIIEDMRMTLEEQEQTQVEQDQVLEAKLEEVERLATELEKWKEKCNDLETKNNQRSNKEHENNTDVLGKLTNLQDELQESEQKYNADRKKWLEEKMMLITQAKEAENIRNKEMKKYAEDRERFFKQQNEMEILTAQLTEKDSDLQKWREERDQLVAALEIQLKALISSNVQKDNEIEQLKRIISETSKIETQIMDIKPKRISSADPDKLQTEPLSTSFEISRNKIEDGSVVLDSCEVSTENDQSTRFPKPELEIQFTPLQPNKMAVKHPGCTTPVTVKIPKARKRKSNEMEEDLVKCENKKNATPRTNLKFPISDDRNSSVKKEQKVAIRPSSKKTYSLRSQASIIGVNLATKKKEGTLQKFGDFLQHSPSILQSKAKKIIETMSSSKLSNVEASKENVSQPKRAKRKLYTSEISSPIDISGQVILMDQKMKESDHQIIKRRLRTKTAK
Centromere-associated protein E (Homo sapiens), sequence (Q02224 whole entry): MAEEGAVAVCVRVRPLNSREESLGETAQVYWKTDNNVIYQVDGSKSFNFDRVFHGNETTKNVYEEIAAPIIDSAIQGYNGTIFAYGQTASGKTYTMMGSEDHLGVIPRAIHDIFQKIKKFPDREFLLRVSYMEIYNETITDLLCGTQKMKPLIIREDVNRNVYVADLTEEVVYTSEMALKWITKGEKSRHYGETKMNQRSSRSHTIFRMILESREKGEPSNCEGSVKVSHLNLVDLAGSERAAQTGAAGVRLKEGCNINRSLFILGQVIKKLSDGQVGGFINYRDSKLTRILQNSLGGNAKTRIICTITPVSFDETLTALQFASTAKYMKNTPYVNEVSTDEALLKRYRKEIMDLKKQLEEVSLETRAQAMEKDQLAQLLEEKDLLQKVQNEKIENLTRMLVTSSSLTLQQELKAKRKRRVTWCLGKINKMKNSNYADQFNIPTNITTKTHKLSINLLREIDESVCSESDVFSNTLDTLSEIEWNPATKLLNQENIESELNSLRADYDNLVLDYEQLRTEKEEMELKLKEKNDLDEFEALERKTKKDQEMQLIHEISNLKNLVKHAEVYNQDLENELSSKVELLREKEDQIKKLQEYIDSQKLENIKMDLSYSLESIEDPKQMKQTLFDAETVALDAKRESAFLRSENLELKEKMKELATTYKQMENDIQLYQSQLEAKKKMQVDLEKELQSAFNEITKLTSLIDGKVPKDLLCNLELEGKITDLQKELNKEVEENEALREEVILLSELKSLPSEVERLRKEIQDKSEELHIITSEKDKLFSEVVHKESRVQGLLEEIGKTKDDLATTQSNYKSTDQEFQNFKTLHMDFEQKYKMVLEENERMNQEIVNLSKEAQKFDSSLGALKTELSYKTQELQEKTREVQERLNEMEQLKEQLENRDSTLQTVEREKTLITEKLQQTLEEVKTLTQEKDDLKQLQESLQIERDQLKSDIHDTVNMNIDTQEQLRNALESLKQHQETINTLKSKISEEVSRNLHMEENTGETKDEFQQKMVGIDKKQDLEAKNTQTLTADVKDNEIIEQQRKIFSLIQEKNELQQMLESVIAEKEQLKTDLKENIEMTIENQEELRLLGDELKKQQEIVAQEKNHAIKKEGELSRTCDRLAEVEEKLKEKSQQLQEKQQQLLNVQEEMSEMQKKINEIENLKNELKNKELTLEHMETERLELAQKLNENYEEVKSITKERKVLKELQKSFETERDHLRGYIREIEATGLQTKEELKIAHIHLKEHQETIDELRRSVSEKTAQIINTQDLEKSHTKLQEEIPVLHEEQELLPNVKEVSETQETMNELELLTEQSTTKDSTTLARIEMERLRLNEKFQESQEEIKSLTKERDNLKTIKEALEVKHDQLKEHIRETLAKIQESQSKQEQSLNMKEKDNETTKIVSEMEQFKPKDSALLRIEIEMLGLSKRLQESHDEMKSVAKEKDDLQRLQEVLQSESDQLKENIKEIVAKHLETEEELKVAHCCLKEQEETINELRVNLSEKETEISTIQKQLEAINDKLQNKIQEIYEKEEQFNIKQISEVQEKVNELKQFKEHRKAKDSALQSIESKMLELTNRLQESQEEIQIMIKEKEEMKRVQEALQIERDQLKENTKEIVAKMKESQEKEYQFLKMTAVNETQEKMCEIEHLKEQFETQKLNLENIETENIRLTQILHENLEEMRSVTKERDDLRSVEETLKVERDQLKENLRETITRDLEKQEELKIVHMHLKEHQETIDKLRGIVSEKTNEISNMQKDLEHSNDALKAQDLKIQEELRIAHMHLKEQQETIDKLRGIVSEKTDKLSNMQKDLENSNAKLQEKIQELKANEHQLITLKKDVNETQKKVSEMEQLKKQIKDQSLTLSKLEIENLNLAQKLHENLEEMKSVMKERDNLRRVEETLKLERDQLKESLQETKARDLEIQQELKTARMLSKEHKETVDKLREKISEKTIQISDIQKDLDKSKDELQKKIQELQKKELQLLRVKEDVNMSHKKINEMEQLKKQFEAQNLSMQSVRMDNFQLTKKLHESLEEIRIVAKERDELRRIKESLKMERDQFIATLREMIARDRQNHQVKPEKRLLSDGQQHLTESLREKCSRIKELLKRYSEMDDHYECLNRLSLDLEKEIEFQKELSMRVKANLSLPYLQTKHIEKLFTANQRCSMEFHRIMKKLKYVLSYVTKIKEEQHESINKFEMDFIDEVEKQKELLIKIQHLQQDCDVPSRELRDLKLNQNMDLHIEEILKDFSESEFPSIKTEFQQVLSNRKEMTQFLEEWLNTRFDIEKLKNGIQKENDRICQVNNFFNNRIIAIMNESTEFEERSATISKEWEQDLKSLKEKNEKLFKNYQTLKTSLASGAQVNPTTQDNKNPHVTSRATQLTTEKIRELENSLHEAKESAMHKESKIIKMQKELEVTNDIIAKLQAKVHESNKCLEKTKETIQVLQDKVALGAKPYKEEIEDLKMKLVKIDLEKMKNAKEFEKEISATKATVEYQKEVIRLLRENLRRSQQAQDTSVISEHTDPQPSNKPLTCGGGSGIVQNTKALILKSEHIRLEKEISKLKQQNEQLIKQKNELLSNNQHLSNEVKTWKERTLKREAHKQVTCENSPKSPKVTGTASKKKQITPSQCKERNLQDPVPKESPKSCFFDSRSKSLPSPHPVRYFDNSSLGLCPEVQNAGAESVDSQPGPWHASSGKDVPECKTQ

In the case of `Cc1cccc(C(CCC(N)C(=O)O)(c2ccccc2)c2ccccc2)c1` (racemic), the logP in [1] was 2.45. Moreover, the GI50 in the series with NCI-H1299 came out at 137 nM; in the series on BXPC-3, 144 nM. Further, the inhibition entry in series [2], in series [3], in series [4], in series [5] and in [9] was “inactive” each time. Also, the solubility (kinetic) in series [6] and in series [8] was more than 100 µM each time. In addition, the logD in [7] came out at 2.45.
